Each structure is given as a SMILES string.

For the experiment, the system named is Bacillus subtilis ATCC 6633. As to the kind of experiment: Filter disc bioassay, zones of inhibition in B. subtilis lawn. It counts as cell-based. The conditions noted are these: 10-fold dilution series of 1.1 mg in 200 μl methanol, 10 μl per filter disc; indicator strain Bacillus subtilis ATCC 6633. How it is done:
Cosmid no 7 which has been isolated from a Streptomyces fradiae cosmid library, was kindly provided by J. Corts. E. coli transformants were selected with 100 ug/ml ampicillin. The Saccharopolyspora erythraea NRRL 2338-red variant strain (Hessler et al., Appl. Microbiol. Biotechnol. (1997) 47:398-404) was kindly provided by J. M. Weber and was routinely maintained on M1-102 agar (Kaneda et al. J. Biol. Chem. (1962) 237:322-327), R2T20 (Yamamoto et al. J. Antibiot. (1986) 34:1304-1313), R2T2 (same as R2T (Weber et al. J. Bacterial. (1985)164:425-433), but without peptone), and TSB (Difco) for liquid cultures at 30° C. Bacillus subtilis ATCC 6633 was used in bioassays to assess erythromycin production as described (Gaisser et al. (1997), supra). […] Both metabolites (10 μl of 10 mM stock solution) were applied to agar wells cut into the S. erythraea lawn and incubated at 30° C. overnight as described (Gaisser et al. (1997) supra) and the development of zones of inhibition in the B. subtilis lawn around S. erythraea colonies was assessed. […]
Bacillus subtilis ATCC 6633 was used in bioassays as described previously (Gaisser et al., 1998). […] The development of zones of inhibition in the B. subtilis lawn was assessed.

Turning to `CCC1OC(=O)C(C)C(OC2OC(C)C(O)C(O)C2OC)C(C)C(OC2OC(C)CC(N(C)C)C2O)C(C)(O)CC(C)C(=O)C(C)C(O)C1C` (stereo not shown) [3-O-(2′-O-methylrhamnosyl)erythromycin D], the “bioactivity, fold less compared to erythromycin A (size of the halos around filter discs)” value is “about 100 fold”.

Values taken from US7482137B2, “Hybrid glycosylated products and their production and use” (Biotica Technology Limited, priority 2000, dated 2009).
